Results on five compounds are retold here after patent publication US4387100A, “Substituted phenoxy-aminopropanol derivatives” (Hoffmann-La Roche Inc., priority 1980, dated 1983).

T2 sequence (P18090 whole entry): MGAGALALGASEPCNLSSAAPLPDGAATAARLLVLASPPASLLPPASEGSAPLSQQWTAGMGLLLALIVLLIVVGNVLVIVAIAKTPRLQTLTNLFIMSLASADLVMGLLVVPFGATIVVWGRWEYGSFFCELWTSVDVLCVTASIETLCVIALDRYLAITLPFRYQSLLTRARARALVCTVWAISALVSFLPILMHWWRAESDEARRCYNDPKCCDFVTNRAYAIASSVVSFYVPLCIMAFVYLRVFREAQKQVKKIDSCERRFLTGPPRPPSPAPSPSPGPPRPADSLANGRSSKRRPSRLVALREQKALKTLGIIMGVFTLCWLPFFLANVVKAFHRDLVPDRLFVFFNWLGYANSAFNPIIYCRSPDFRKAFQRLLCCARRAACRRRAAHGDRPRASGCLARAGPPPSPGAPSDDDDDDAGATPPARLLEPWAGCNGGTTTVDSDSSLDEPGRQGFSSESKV
T1 sequence (P10608 whole entry): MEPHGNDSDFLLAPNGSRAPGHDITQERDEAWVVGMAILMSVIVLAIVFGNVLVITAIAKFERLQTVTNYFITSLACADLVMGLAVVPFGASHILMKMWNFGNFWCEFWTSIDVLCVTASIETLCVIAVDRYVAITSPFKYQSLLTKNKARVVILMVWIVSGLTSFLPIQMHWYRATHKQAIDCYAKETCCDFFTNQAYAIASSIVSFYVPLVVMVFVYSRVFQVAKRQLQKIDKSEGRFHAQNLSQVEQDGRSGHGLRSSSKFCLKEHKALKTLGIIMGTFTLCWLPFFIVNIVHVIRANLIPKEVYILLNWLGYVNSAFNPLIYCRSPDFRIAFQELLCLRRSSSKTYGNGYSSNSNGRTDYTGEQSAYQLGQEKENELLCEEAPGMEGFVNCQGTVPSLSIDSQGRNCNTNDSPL

One assay has as its target T1, β2-adrenoceptors (Rattus norvegicus, UniProt P10608).
T1 construct: this activity is measured in rats by determining the dosage; from tissue; host or cells: living rat, i.v. dosing; read-out blood pressure (isoprenaline-induced depressor response)
Description: 50% reduction in isoprenaline-induced depressor responses (β2-blocking activity) in rats, i.v. The assay is classed as in vivo. Conditions: iv, dosage for 50% reduction in isoprenaline-induced depressor responses.
Regarding `CC(C)NCC(O)COc1ccc(OCCn2nccn2)cc1` (stereo not drawn) [D], the ED50 (usually the dose that gives a 50% effect, or the effect in half of the subjects) was above 2 mg/kg.
As for `CC(C)NCC(O)COc1ccc(OCCn2cccn2)cc1` (stereo not drawn) [A], the ED50 was determined as 6.5 mg/kg.
As to `CC(C)NCC(O)COc1ccc(OCn2nccn2)cc1` (stereo not drawn) [C], the ED50 was above 2 mg/kg.
The compound `CC(C)NCC(O)COc1ccc(OCn2cc(Cl)cn2)cc1` (stereo not drawn) [B] came in with an ED50 of 2.43 mg/kg.

Another assay addresses T2, β1-adrenoceptors (Rattus norvegicus, UniProt P18090).
T2 construct: this activity is measured in rats by determining the dosage; from tissue; host or cells: living rat, i.v. dosing; read-out heart rate (isoprenaline-induced tachycardia)
The assay can be described thus: 50% reduction in isoprenaline-induced tachycardia (β1-blocking activity) in rats, i.v. It is filed as in vivo. The settings on record: iv, rats, i.v., dosage for 50% reduction in isoprenaline-induced tachycardia, read-out: ED50 (HR).
`CC(C)NCC(O)COc1ccc(OCCn2nccn2)cc1` (stereo not drawn) [D]: the ED50 is 0.014 mg/kg.
On to `CC(C)NCC(O)COc1ccc(OCCn2cccn2)cc1` (stereo not drawn) [A], for which the ED50 amounted to 0.05 mg/kg.
The same measure, in the same setting: next, `CC(C)NCC(O)COc1ccc(OCn2nccn2)cc1` (stereo not drawn) [C]: 0.011 mg/kg; `CC(C)NCC(O)COc1ccc(OCn2cc(Cl)cn2)cc1` (stereo not drawn) [B]: 0.004 mg/kg.

Still in this assay, the particulars now being: iv, read-out: ED50 (HR).
Regarding `CC(C)NCC(O)COc1ccc(CC(N)=O)cc1` (stereo not drawn) [Atenolol, atenolol, reference compound], the ED50 was 0.091 mg/kg.
